Where a name gives a salt, the structure may show the parent alone.
Key:
[1] = system: D2-MSNs in dorsal striatum of D2-Ugcg^f/f mice; experiment: DREADD (AAV-hM3Dq) activation of D2-MSNs, c-Fos and behavioral tests; conditions: CNO 1 mg/kg, i.p.
Experimental: Open field test (OFT). […] Mice were gently placed in the center and allowed to explore the area for 5 min. The total distance travelled and time spent in the center (20 × 20 cm^2) were recorded using EthoVision version 7.0 software (Noldus Information Technology, Netherlands).
Elevated plus maze test (EPMT). The apparatus consisted of two open arms (30 cm × 5 cm) and two closed arms (30 cm × 5 cm × 15 cm) extending from a central platform (5 cm × 5 cm), elevated 50 cm above the floor. Mice were placed on the central platform facing one of the open arms and allowed to explore the maze for 5 min. Behavior was recorded using a video camera positioned above the maze in conjunction with Anymaze tracking software (Stoelting Co.; Wood Dale, IL, USA).
Forced swimming test (FST). Each mouse was placed individually into a water-filled cylinder maintained at 23-25 °C and allowed to swim for 6 min. The first 2 min were considered an acclimation period, and data from this period were not included in the analysis. During the remaining 4 min, the behavior of the mice was recorded using EthoVision version 7.0 software (Noldus Information Technology, Netherlands).
D2-Cre or D2-Ugcg^f/f mice were bilaterally injected with AAV-hM3Dq into the dorsal striatum (AP +0.8 mm, ML ±1.5 mm, DV -3.0 mm). Following surgery, mice were given 3 weeks to express the virus before starting behavioral tests. Prior to each behavioral test, mice received an injection of Clozapine N-oxide (CNO; 1 mg/kg, i.p.; Sigma-Aldrich, USA) 30 min before the testing session.

CRS-induced mice = experiment: Behavioral tests (OFT, EPMT, LDT, SPT, FST) in chronic restraint stress mice, intra-dorsal striatal infusion; assay type: in vivo
Experimental: For intracranial injection, mice were surgically implanted with sterilized guide cannulae in dorsal striatum. […] Mice were intraperitoneally injected with CNO (1 mg/kg/d) before behavioral test.
Chronic restraint stress (CRS). For the CRS protocol, male C57BL/6J mice (8-10 weeks old) were obtained from Charles River Laboratories (Beijing, China). Mice were individually placed into well-ventilated 50 mL conical restraint tube (suitable for mice weighing 20-25 g) with multiple holes for 4 h daily between 10:00 AM and 2:00 PM to minimize circadian rhythm variations. The restraint stress procedure was conducted for 14 consecutive days. Then, all behavioral test were performed between 10:00 AM and 18:00 PM.
(§1) Elevated plus maze test (EPMT).
(§2) Light-dark Transition test (LDT).
(§3) Sucrose preference test (SPT).
(§4) Forced swimming test (FST).

GCS = system: T1, GCS; experiment: GCS activity in dorsal striatum of CRS-induced mice; assay type: in vivo; conditions: intra-dorsal striatal PDMP
T1 construct: from tissue; host or cells: mouse dorsal striatum

PPARγ = system: T2, PPARγ; experiment: PPARγ mRNA, protein and transcriptional activity in dorsal striatum of CRS-induced mice; assay type: in vivo
T2 construct: from tissue; host or cells: mouse dorsal striatum
Description: Dorsal striatal tissues were processed in accordance with the RNA isolation kit's instructions (RC102/RC112; Vazyme Biotech Co.,Ltd), mRNA was reverse transcribed using HiScript® III All-in-one RT SuperMix (Vazyme Biotech Co.,Ltd), and cDNA was amplified using SYBR Green (Vazyme Biotech Co.,Ltd). The 2^-ΔΔCt method was used to analyze gene expression, and the relative level of the target gene was normalized to Gapdh. The primer sequences can be found in Supplemental materials Table S1.
Brain tissues were cut into small pieces and then centrifuged at 13,000 g for 15 min at 4 °C. Supernatants were collected, and proteins concentrations were determined by BCA assay. Samples were denatured at 95 °C for 5 min and subsequently stored at -80 °C for further use. Protein samples were loaded onto 10% SDS-PAGE and transferred on PVDF membranes. After being blocked with 5% nonfat dry milk in Tris-buffered saline with 0.1% Tween-20 for 1.5 h, the PVDF membranes were incubated with corresponding primary antibodies overnight at 4 °C. Membranes were then incubated with HRP-conjugated secondary antibodies for 1 h at room temperature and measured with chemiluminescence imaging system (ChemiScope; Clinx, China).
Nuclear extracts were prepared from N2a cells using a nuclear extraction kit according to the manufacturer protocol. The binding reaction between PPARγ and PPRE was carried out at 4°C for 16 h using 3 μg of nuclear extracts. The binding activity between PPARγ and PPRE was indicated by the change of optical density (OD) at 405 nm, and an enzyme reaction was measured by HRP-conjugated antibody in complex of PPRE/ PPARγ/antibody.

D2-Pparg^f/f mice = experiment: Behavioral tests in D2-Pparg f/f mice after intra-dorsal striatal microinfusion; assay type: in vivo; conditions: UNC 10 μM, 1 μL/side
Experimental: For intracranial injection, mice were surgically implanted with sterilized guide cannulae in dorsal striatum. Intra-dorsal striatal injection of PDMP (100 μM, 1 μL/injection), pioglitazone (100 μM, 1 μL/injection), UNC (10 μM, 1 μL/injection) was performed 30 min before behavioral test. Mice were intraperitoneally injected with CNO (1 mg/kg/d) before behavioral test.
as §1, §2, §3, §4

PPARγ target genes = experiment: qRT-PCR of PPARγ target genes in PPARγ-overexpressing N2a cells; assay type: cell-based; conditions: 0.1, 1 and 10 μM
[2] = LC-MS of GlcCer levels in dorsal striatum of CRS-induced mice; assay type: in vivo; conditions: intra-dorsal striatum infusion of pioglitazone, GlcCer or combination
Experimental: The procedure for the extraction of sphingolipids was established according to the LIPID MAPS protocol with modifications. Briefly, dorsal striatal tissues were added 0.5 mL of MeOH, 0.25 mL of CHCl3 and 7.5 μL of internal standards cocktail (2.5 μM). For sphingolipidomics, 5 μL of internal standards mixture (LM6002, Avanti polar lipids) was added. The mixture was then ultrasonicated for 45 s at room temperature and incubation at 48°C overnight. To avoid potentially interfering glycerolipids, 75 μL of KOH in MeOH (1M) was added, followed by incubation in a heat block at 200 rpm for 2 h at 37 °C. After neutralization, a four-step extraction process was performed to obtain SPL extract for analysis. The supernatant was transferred to a new Eppendorf tube and the resides were added l mL of MeOH and 2 mL of CHCl3, followed by centrifugation at 3800 rpm for 8 min. […] Sphingolipidomics were measured with ultra-high-performance liquid chromatography (UPLC) coupled with hybrid Quadrupole-Orbitrap high resolution mass spectrometry (Q-Exactive-HRMS). […] For […] quantitation, brain tissues were quantified by UPLC-MS/MS using a Q-Exactive-HRMS with UPLC. […] Quantification of […] with various fatty acid chain lengths were achieved using the calibration curve of each GlcCer species with closest number of chain length. […]

D2-Ugcg^f/f mice = experiment: Behavioral tests in D2-Ugcg f/f mice after intra-dorsal striatal microinfusion; assay type: in vivo; conditions: pioglitazone 1 μM, 1 μL per side
[3] = system: depression and bipolar disorder; design: method as in PMID 30699881; conditions: clinical; ref [10]; cited from earlier work
[4] = D2-Ugcg^f/f mice with AAV-hM3Dq
[5] = CRS mice, PDMP 100 μM, 1 μL/side

C[N+]1([O-])CCN(C2=Nc3cc(Cl)ccc3Nc3ccccc32)CC1 [CNO, Clozapine-N-oxide]
expression of c-Fos ([1]; AAV-hM3Dq-injected mice): significantly increased
immobility time in the FST [1, 4]: lower
time in the center area in the OFT [1, 4]: more time
time in the light room in the LDT [1, 4]: more time
time in the open arms in the EPMT [1, 4]: more time

CCCCCCCCCC(=O)N[C@@H](CN1CCOCC1)[C@@H](O)c1ccccc1.Cl [PDMP, (-)-L-threo-PDMP hydrochloride]
immobility time in the FST (CRS-induced mice; [5]): reduced
sucrose preference in the SPT (CRS-induced mice; [5]): restored
time spent in light area in the LDT (CRS-induced mice; [5]): increased
time spent in open arms in the EPMT (CRS-induced mice; [5]): increased
time spent in the center area in the OFT (CRS-induced mice; [5]): increased
anxiety- and depression-like behaviors following CRS (CRS-induced mice; PDMP 100 μM, 1 μL/side, intra-dorsal striatum): significantly ameliorated
GCS activity in the dorsal striatum (GCS): significantly enhanced
PPARγ activity in the dorsal striatum (PPARγ; PDMP treatment): significantly enhanced
PPARγ mRNA or protein expression (PPARγ; PDMP treatment): did not alter

Clc1cccc(N2CCN(CCCOc3ccc4scnc4c3)CC2)c1Cl [UNC, UNC9995]
reductions in the OFT, EPMT, LDT, SPT, and FST (D2-Pparg^f/f mice): effectively reversed

CCc1ccc(CCOc2ccc(CC3SC(=O)NC3=O)cc2)nc1 (centres unmarked) [pioglitazone, Pioglitazone hydrochloride]
expression of Adipoq and Leptin (PPARγ target genes): robustly upregulated
expression of Angptl4 (PPARγ target genes): significantly increased
expression of adipogenesis-related genes (Srebp-1c, Adrp, Fabp4, Fasn, Cd36) (PPARγ target genes): strongly induced
stress-induced depression-like behaviors (overall) (CRS-induced mice; CRS mice, administration of GlcCer, pioglitazone or combined): reverses
PPARγ mRNA or protein expression (PPARγ; intra-dorsal striatum pioglitazone, GlcCer or combination): neither pioglitazone, GlcCer, nor their combination altered
GlcCer levels in the dorsal striatum (LC-MS) [2]: did not alter
anxiety- and depression-like behaviors in the OFT, EPMT, LDT, SPT, and FST (D2-Ugcg^f/f mice): effectively reversed
symptoms of depression and bipolar disorder [3]: proven effective
